Calls of active or inactive are those of the source. No cut-off for these calls is given here.
How the values were obtained:
[1] = biological target: T1, NEDD8 activating enzyme (Homo sapiens) (UniProt Q8TBC4+Q13564); assay: Inhibition of NAE in human MGC-803 cells assessed as reduction in UBC12-NEDD8 complex incubated for 24 hrs by Western blot analysis; format: cell-based; conditions: dose 1-5 µM
[2] = biological target: T1, NEDD8 activating enzyme (Homo sapiens); assay: Inhibition of NAE in human MGC-803 cells assessed as reduction in NAE1-NEDD8 complex incubated for 24 hrs by Western blot analysis; format: cell-based; conditions: dose 1-5 µM
[3] = biological target: T1, NEDD8 activating enzyme (Homo sapiens); assay: Inhibition of NAE in human MGC-803 cells assessed as reduction in cullin1 neddylation incubated for 24 hrs by Western blot analysis; format: cell-based; conditions: dose 1-5 µM
[4] = biological target: T1, NEDD8 activating enzyme (Homo sapiens); assay: Inhibition of NAE in human MGC-803 cells assessed as reduction in cullin3 neddylation incubated for 24 hrs by Western blot analysis; format: cell-based; conditions: dose 1-5 µM
[5] = biological target: T1, NEDD8 activating enzyme (Homo sapiens); assay: Inhibition of NAE in human MGC-803 cells assessed as reduction in cullin5 neddylation incubated for 24 hrs by Western blot analysis; format: cell-based; conditions: dose 1-5 µM
MGC-803 [6] = assay: Induction of cell cycle arrest in human MGC-803 cells assessed as accumulation of cells at G1 phase at 1 uM incubated for 24 hrs by flow cytometry analysis (reference value: 64.82%); format: functional
MGC-803 [7] = assay: Induction of cell cycle arrest in human MGC-803 cells assessed as accumulation of cells at G1 phase at 2 uM incubated for 24 hrs by flow cytometry analysis (reference value: 64.82%); format: functional
MGC-803 [8] = assay: Induction of cell cycle arrest in human MGC-803 cells assessed as accumulation of cells at G1 phase at 4 uM incubated for 24 hrs by flow cytometry analysis (reference value: 64.82%); format: functional
MGC-803 [9] = assay: Induction of cell cycle arrest in human MGC-803 cells assessed as accumulation of cells in S phase at 1 uM incubated for 24 hrs by flow cytometry analysis (reference value: 21.93%); format: functional
MGC-803 [10] = assay: Induction of cell cycle arrest in human MGC-803 cells assessed as accumulation of cells in S phase at 2 uM incubated for 24 hrs by flow cytometry analysis (reference value: 21.93%); format: functional
MGC-803 [11] = assay: Induction of cell cycle arrest in human MGC-803 cells assessed as accumulation of cells in S phase at 4 uM incubated for 24 hrs by flow cytometry analysis (reference value: 21.93%); format: functional
MGC-803 [12] = assay: Induction of cell cycle arrest in human MGC-803 cells assessed as accumulation of cells in G2/M phase at 1 uM incubated for 24 hrs by flow cytometry analysis (reference value: 13.25%); format: functional
MGC-803 [13] = assay: Induction of cell cycle arrest in human MGC-803 cells assessed as accumulation of cells in G2/M phase at 2 uM incubated for 24 hrs by flow cytometry analysis (reference value: 13.25%); format: functional
MGC-803 [14] = assay: Induction of cell cycle arrest in human MGC-803 cells assessed as accumulation of cells in G2/M phase at 4 uM incubated for 24 hrs by flow cytometry analysis (reference value: 13.25%); format: functional
MGC-803 [15] = assay: Induction of apoptosis in human MGC-803 cells assessed as viable cells at 1 uM incubated for 48 hrs by Annexin V-FITC/PI double staining based flow cytometry analysis (reference value: 97.3 %); format: functional; conditions: read-out: Activity
MGC-803 [16] = assay: Induction of apoptosis in human MGC-803 cells assessed as viable cells at 2 uM incubated for 48 hrs by Annexin V-FITC/PI double staining based flow cytometry analysis (reference value: 97.3 %); format: functional; conditions: read-out: Activity
MGC-803 [17] = assay: Induction of apoptosis in human MGC-803 cells assessed as viable cells at 4 uM incubated for 48 hrs by Annexin V-FITC/PI double staining based flow cytometry analysis (reference value: 97.3 %); format: functional; conditions: read-out: Activity
MGC-803 [18] = assay: Induction of apoptosis in human MGC-803 cells assessed as early apoptosis cells at 1 uM incubated for 48 hrs by Annexin V-FITC/PI double staining based flow cytometry analysis (reference value: 0.39 %); format: functional
MGC-803 [19] = assay: Induction of apoptosis in human MGC-803 cells assessed as early apoptosis cells at 2 uM incubated for 48 hrs by Annexin V-FITC/PI double staining based flow cytometry analysis (reference value: 0.39 %); format: functional
MGC-803 [20] = assay: Induction of apoptosis in human MGC-803 cells assessed as early apoptosis cells at 4 uM incubated for 48 hrs by Annexin V-FITC/PI double staining based flow cytometry analysis (reference value: 0.39 %); format: functional
MGC-803 [21] = assay: Induction of apoptosis in human MGC-803 cells assessed as late apoptosis cells at 1 uM incubated for 48 hrs by Annexin V-FITC/PI double staining based flow cytometry analysis (reference value: 1.95 %); format: functional
MGC-803 [22] = assay: Induction of apoptosis in human MGC-803 cells assessed as late apoptosis cells at 2 uM incubated for 48 hrs by Annexin V-FITC/PI double staining based flow cytometry analysis (reference value: 1.95 %); format: functional
MGC-803 [23] = assay: Induction of apoptosis in human MGC-803 cells assessed as late apoptosis cells at 4 uM incubated for 48 hrs by Annexin V-FITC/PI double staining based flow cytometry analysis (reference value: 1.95 %); format: functional
MGC-803 [24] = assay: Induction of apoptosis in human MGC-803 cells assessed as necrotic cells at 1 uM incubated for 48 hrs by Annexin V-FITC/PI double staining based flow cytometry analysis (reference value: 0.37 %); format: functional
MGC-803 [25] = assay: Induction of apoptosis in human MGC-803 cells assessed as necrotic cells at 2 uM incubated for 48 hrs by Annexin V-FITC/PI double staining based flow cytometry analysis (reference value: 0.37 %); format: functional
MGC-803 [26] = assay: Induction of apoptosis in human MGC-803 cells assessed as necrotic cells at 4 uM incubated for 48 hrs by Annexin V-FITC/PI double staining based flow cytometry analysis (reference value: 0.37 %); format: functional
MGC-803 [27] = assay: Induction of ROS generation in human MGC-803 cells at 1 uM incubated for 24 hrs by DCFH-DA staining based flow cytometry analysis (reference value: 3.1%); format: functional
MGC-803 [28] = assay: Induction of ROS generation in human MGC-803 cells at 2 uM incubated for 24 hrs by DCFH-DA staining based flow cytometry analysis (reference value: 3.1%); format: functional
MGC-803 [29] = assay: Induction of ROS generation in human MGC-803 cells at 4 uM incubated for 24 hrs by DCFH-DA staining based flow cytometry analysis (reference value: 3.1%); format: functional
MGC-803 [30] = assay: Inhibition of cell migration in human MGC-803 cells incubated for 48 hrs by wound healing assay; format: functional, cell-based; conditions: dose 1-4 µM
MGC-803 [31] = assay: Inhibition of cell migration in human MGC-803 cells assessed as reduction in wound closure rate at 4 uM incubated for 48 hrs by wound healing assay (reference value: 49%); format: functional
MGC-803 [32] = assay: Inhibition of colony formation in human MGC-803 cells incubated for 48 hrs by phase-contrast microscopy; format: functional, cell-based; conditions: dose 1-4 µM
A549 = assay: Antiproliferative activity against human A549 cells by CCK8 assay; format: functional, cell-based
MGC-803 [33] = assay: Antiproliferative activity against human MGC-803 cells by CCK8 assay; format: functional, cell-based
MCF7 = assay: Antiproliferative activity against human MCF7 cells by CCK8 assay; format: functional, cell-based
KYSE-30 = assay: Antiproliferative activity against human KYSE-30 cells by CCK8 assay; format: functional, cell-based
[34] = Cytotoxicity against HUVECs incubated for 72 hrs by CCK8 assay; format: toxicity, cell-based; conditions: human, HUVEC cells
[35] = Selectivity index, ratio of IC50 for human A549 cells to IC50 for HUVECs
[36] = Selectivity index, ratio of IC50 for human MGC-803 cells to IC50 for HUVECs
[37] = Selectivity index, ratio of IC50 for human MCF7 cells to IC50 for HUVECs
[38] = Selectivity index, ratio of IC50 for human KYSE-30 cells to IC50 for HUVECs
[39] = biological target: T1, NEDD8 activating enzyme (Homo sapiens); assay: Inhibition of NAE in human MGC-803 cells assessed as reduction in NAE1-NEDD8 complex formation at 5 uM incubated for 24 hrs by Western blot analysis relative to control; format: cell-based

**Q.** Which inhibition [1] does the source give for `CCc1ccc(C(=O)Nc2nc3ccc(NC(=O)C4CCN(Cc5ccccc5)CC4)cc3s2)cc1` here?
**A.** Its inhibition is “Dose-Dependent Effect”.

**Q.** What about the inhibition [2] of the same compound?
**A.** The inhibition was “Dose-Dependent Effect”.

**Q.** What about the inhibition [3] of the same compound?
**A.** The inhibition was “Dose-Dependent Effect”.

**Q.** What about the inhibition [4] of the same compound?
**A.** The inhibition was “Dose-Dependent Effect”.

**Q.** What about the inhibition [5] of the same compound?
**A.** The inhibition was “inactive”.

**Q.** And the Activity (MGC-803 [6])?
**A.** The Activity was 68.08%.

**Q.** What about the Activity (MGC-803 [7]) of the same compound?
**A.** Its Activity is 61.71%.

**Q.** And the Activity (MGC-803 [8])?
**A.** Its Activity is 45.22%.

**Q.** And the Activity (MGC-803 [9])?
**A.** The Activity was 13.29%.

**Q.** And the Activity (MGC-803 [10])?
**A.** Its Activity is 12.39%.

**Q.** And the Activity (MGC-803 [11])?
**A.** The Activity was 17.12%.

**Q.** And the Activity (MGC-803 [12])?
**A.** Its Activity is 18.63%.

**Q.** What about the Activity (MGC-803 [13]) of the same compound?
**A.** The Activity was 25.9%.

**Q.** And the Activity (MGC-803 [14])?
**A.** Its Activity is 37.66%.

**Q.** And the viability at 1 µM (MGC-803 [15])?
**A.** Its viability at 1 µM is 86.5%.

**Q.** And the viability at 2 µM (MGC-803 [16])?
**A.** The viability at 2 µM was 73.3%.

**Q.** What about the viability at 4 µM (MGC-803 [17]) of the same compound?
**A.** Its viability at 4 µM is 57.6%.

**Q.** What about the Activity (MGC-803 [18]) of the same compound?
**A.** Its Activity is 3.15%.

**Q.** What about the Activity (MGC-803 [19]) of the same compound?
**A.** The Activity was 7.92%.

**Q.** What about the Activity (MGC-803 [20]) of the same compound?
**A.** Its Activity is 8.54%.

**Q.** And the Activity (MGC-803 [21])?
**A.** The Activity was 10.1%.

**Q.** What about the Activity (MGC-803 [22]) of the same compound?
**A.** The Activity was 18.5%.

**Q.** And the Activity (MGC-803 [23])?
**A.** Its Activity is 33.8%.

**Q.** What about the Activity (MGC-803 [24]) of the same compound?
**A.** Its Activity is 0.18%.

**Q.** And the Activity (MGC-803 [25])?
**A.** Its Activity is 0.23%.

**Q.** And the Activity (MGC-803 [26])?
**A.** The Activity was 0.11%.

**Q.** And the Activity (MGC-803 [27])?
**A.** The Activity was 6.8%.

**Q.** And the Activity (MGC-803 [28])?
**A.** The Activity was 13.1%.

**Q.** What about the Activity (MGC-803 [29]) of the same compound?
**A.** Its Activity is 26.4%.

**Q.** What about the inhibition (MGC-803 [30]) of the same compound?
**A.** Its inhibition is “Dose-Dependent Effect”.

**Q.** And the inhibition at 4 µM (MGC-803 [31])?
**A.** Its inhibition at 4 µM is less than 20%.

**Q.** And the inhibition (MGC-803 [32])?
**A.** The inhibition was “Dose-Dependent Effect”.

**Q.** And the IC50 (A549)?
**A.** Its IC50 is 870 nM.

**Q.** What about the IC50 (MGC-803 [33]) of the same compound?
**A.** Its IC50 is 1630 nM.

**Q.** And the IC50 (MCF7)?
**A.** Its IC50 is 960 nM.

**Q.** What about the IC50 (KYSE-30) of the same compound?
**A.** The IC50 was 650 nM.

**Q.** And the IC50 at 72 h [34]?
**A.** The IC50 at 72 h was 6210 nM.

**Q.** What about the “Ratio IC50” value [35] of the same compound?
**A.** The value was 3.8.

**Q.** What about the “Ratio IC50” value [36] of the same compound?
**A.** The value was 3.8.

**Q.** And the “Ratio IC50” value [37]?
**A.** Its value is 3.8.

**Q.** What about the “Ratio IC50” value [38] of the same compound?
**A.** Its value is 3.8.

**Q.** What about the inhibition [39] of the same compound?
**A.** The inhibition was 100%.

— ChEMBL document CHEMBL5625268, “Identification of novel benzothiazole derivatives as inhibitors of NEDDylation pathway to inhibit the progression of gastric cancer” (Bioorg Med Chem Lett, 2024)
